Experimental data published in patent US20160287536A1, “Composition” (THE UNIVERSITY OF NOTTINGHAM, priority 2013, published 2016).
Where “and” joins values, the source holds several entries; their conditions need not be identical. Equal values may be shown once. Read-outs that look alike come from different tables or passages of the source. Values belong to the compound of their own block, whether it stands above or below them.

Legend:
Format in all cases: cell-based
[1] = system: sheep isolated rectal artery; test: Wire myography, sheep isolated rectal artery (SRA); settings: for effect on the noradrenaline CRC: prazosin 0.4-10 nM, RX811059 30 nM; for spontaneous contraction: sheep isolated rectal vessels, 10 μM
Procedure: (§1) Sheep mesenteric tissue, from the distal sigmoid colon to the anus, was obtained from a local abattoir. The sheep tissue was delivered in a dry bag and stored at 4° C. until dissected. The bundle of sheep rectal vessels was dissected from its mesentery within four hours of arrival from the abattoir. The vascular bundle was then kept in the pre-oxygenated Krebs-Henseleit buffer solution at 4° C. until used (on the same day as a preferential method or on the following day after storage overnight). No experiments were conducted on tissue stored for more than 24 hours after dissection. The Krebs solution consisted of 118.4 mM NaCl, 4.7 mM KCl, 1.2 mM MgSO4, 1.2 mM KH2PO4, 1.25 mM CaCl2, 24.9 mM NaHCO3, and 11.1 mM glucose.
(§2) Before setting a wire myography experiment, the remaining loose connective tissue was meticulously removed from the rectal vessels. The internal diameter of sheep isolated rectal artery and vein was 450-650 μm and 500-1000 μm, respectively. Each 5-mm ring segment of the ‘clean’ vessels was then suspended between two 200-μm wire supports in an organ bath containing 20 ml Krebs-Henseleit buffer solution. The upper supporting wire was attached to an isometric force transducer, while the lower wire was fixed steadily to a clamped glass rod. The bath solution was maintained at 37° C., and continuously gassed with 95% O2 and 5% CO2. Isometric tension was continuously recorded using a PowerLab 4/25 via QUAD Bridge amplifier (ADInstruments, Inc, Australia).
(§3) After a 10-minute equilibration period, an initial tension of 8 gram weight (g wt) was gradually applied for an arterial segment and left to relax for 30 minutes. The final tension of SRA varied between 1.0 g wt and 2.8 g wt. For a venous segment, an initial tension of 1 g wt was applied and, 10 minutes later, the resting tension was finally re-adjusted to reach a tension of 0.5 g wt. Then the vein was left to relax for further 20 minutes. The final tension of SRV ranged from 0.08 to 0.25 g wt. Once the vascular segments were fully settled, the tissues were tested for contractile activity with 60 mM KCl on three occasions. The vascular contraction was allowed to reach maximum, which generally took about 1-4 minutes. Each KCl challenge was followed by two washouts of 37° C. Krebs solution and the tissues were allowed to rest for 20 minutes between the challenges. The maximum contraction (tension) produced by the third administration of 60 mM KCl was used as a reference contraction to which subsequent responses were compared. After the final (3rd) KCl challenge, the tissues were washed and left for 60 minutes before α-adrenoceptor agonist was administrated. To construct an agonist concentration-response curves (CRC), 0.3-0.4 log 10 increments of agonist solution was added e.g. at the agonist concentration of 100 nM, 200 nM, 500 nM, 1 μM, 2 μM, 5 μM, and so on. Each response was allowed to reach equilibrium or plateau before the next dose of agonist was added. The maximal response to the agonist was considered when no further increase in response occurred upon the addition of two or more consecutive doses of agonist.
(§4) In the case of the noradrenaline study, 10 μM cocaine was added into the organ bath 40 minutes prior to the administration of noradrenaline for inhibiting the uptake of noradrenaline by neural tissue within the vascular wall (re-uptake 1) (Westfall & Westfall, 2006 In Goodman & Gilman's the Pharmacological Basis of Therapeutics. eds Brunton, L. L., Lazo, J. S. & Paker, K. L. pp. 137-181. New York: McGraw Hill). Regarding KCl-induced vasoconstriction, the CRC was generated by the contractile response to 6 mM increments of KCl solution, starting from 0 mM to 60 mM.
(§5) Consecutive CRCs were generated to each agonist, separated by 60 minutes, and if there was no difference in the maximum response (Emax) and pEC50 (defined as the negative logarithm of the concentration required to produce 50% of the maximum response) then a paired CRC protocol was used throughout. […]

[2] = system: sheep isolated rectal vein; test: Wire myography, sheep isolated rectal vein (SRV); settings: for rightward shift of the CRC for noradrenaline: prazosin 10 nM, RX811059 30 nM
Procedure: as §1, §2, §3, §4, §5

[3] = system: human isolated mesenteric vein; test: Wire myography, human isolated mesenteric (colonic/rectal) vein (HMV); settings: for effect on potency of noradrenaline: 10 nM prazosin, 30 nM RX811059; for EC50: Homo sapiens
Description: (§6) After obtaining approval from the local research ethics committee (Reference number: 05/Q2403/171) and having written consent from the patient, human mesenteric (colonic or rectal) vessels were collected from patients who underwent colectomy and/or proctectomy at the Division of Gastrointestinal Surgery, Queen's Medical Centre, University of Nottingham, UK, between August 2009 and March 2010. Patients with a history of previous abdominal/pelvic radiotherapy, and patients with endocrine tumours or concomitant intraabdominal infection were excluded from this study. In an operating room, the mesentery containing the required segment of blood vessels was dissected from the whole surgical specimen immediately after it was removed from a patient. The tissue was then kept in a 100-ml pot containing pre-oxygenated Krebs-Henseleit buffer solution maintained at 4° C. until used. No experiments were conducted on tissue stored for more than 12 hours after dissection. The Krebs solution consisted of 118.4 mM NaCl, 4.7 mM KCl, 1.2 mM MgSO4, 1.2 mM KH2PO4, 1.25 mM CaCl2, 24.9 mM NaHCO3, and 11.1 mM glucose.
Before setting a wire myography experiment, human mesenteric (colonic/rectal) vessels were meticulously dissected from the surrounding mesenteric fatty tissue. The ‘clean’ vessel was then divided into 5-mm ring segments. Generally, the internal diameter of vessels ranged between 400-1000 μm for human mesenteric artery (HMA) and 500-1200 μm for human mesenteric vein (HMV). Each 5-mm ring segment was suspended between two 200-μm wire supports in an organ bath containing 20 ml Krebs-Henseleit buffer solution. The contractile study of human mesenteric vessels was then set in the similar manner of the previous study on sheep isolated rectal vessels.
After a 20-minute equilibration period, an initial resting tension of 8 and 1 gram weight (g wt) was gradually applied to arterial and venous ring segments, respectively, and left to relax for 30 minutes. The final resting tension varied between 1.8 g wt and 3.2 g wt for HMA, and between 0.07 g wt and 0.35 g wt for HMV. Once the vascular segments were fully settled, they were tested for contractile activity with 60 mM KCl three occasions, and an agonist concentration-response curves (CRC) was then reconstructed after the vessels were left to equilibrate for 60 minutes as previously described for sheep rectal vessels. […] In the case of noradrenaline study, 10 μM cocaine was added into the organ bath 40 minutes prior to the administration of noradrenaline for inhibiting the uptake of noradrenaline by neural tissue within the vascular wall (re-uptake 1) (Westfall & Westfall, 2006 In Goodman & Gilman's the Pharmacological Basis of Therapeutics. eds Brunton, L. L., Lazo, J. S. & Paker, K. L. pp. 137-181. New York: McGraw Hill).
Although it appeared that the CRCs of several vasoconstrictors were reproducible (no significant change in maximum response and agonist potency) in human mesenteric vessels, a single CRC, paired segment approach was adopted throughout the study of human blood vessels. This was due to a desire to limit the time of tissue storage and the ease of tissue preparation. The single CRC, paired segment approach involves the generation of only one agonist CRC per tissue. The maximum response (Emax) and pEC50 (defined as the negative logarithm of the concentration required to produce 50% of the maximum response) of each vascular segment were compared to those of other vascular segments (adjacent segments from the same patient, or other segments from different patients).
If the vessel had spontaneous and periodic contraction after the administration of S(−)-BayK8644—which occurred in 70% of HMA and 80% of HMV, the effect of agonist would be considered when there was an increase in the frequency of contraction as well as a rise in the baseline of vascular tone.
The selective α1-adrenoceptor antagonist prazosin and selective α2-adrenoceptor antagonist RX811059 were used in this study. […]

[4] = system: human isolated mesenteric artery; test: Wire myography, human isolated mesenteric (colonic/rectal) artery (HMA)
Description: as §6
Before setting a wire myography experiment, human mesenteric (colonic/rectal) vessels were meticulously dissected from the surrounding mesenteric fatty tissue. The ‘clean’ vessel was then divided into 5-mm ring segments. […]

[5] = Ovis aries, SRV, 10 nM prazosin / 30 nM RX811059 against noradrenaline
[6] = with 10 nM prazosin and 30 nM RX811059
[7] = Ovis aries, SRV, agonist alone (control)

Structure (SMILES): NCCc1c[nH]c2ccc(O)cc12 [5-HT, 5-hydroxytryptamine]
- contractile response ([1]; SRA): concentration-dependent contractions
- contractile response ([2]; SRV): concentration-dependent contractions

Structure (SMILES): [Cl-].[K+] [KCl]
- contractile response ([1]; SRA): sustained concentration-dependent contraction
- mean contraction to 60 mM KCl ([1]; SRA, n=119): 3.14±0.09 g wt
- contractile response ([2]; SRV): concentration-dependent contractions
- mean contraction to 60 mM KCl ([2]; SRV, n=128): 1.18±0.05 g wt

Structure (SMILES): COc1ccc(OC)c(C(O)C(C)N)c1 [L-erythro methoxamine]
- contractile response ([1]; SRA): concentration-dependent contractions
- maximum response as fraction of that to noradrenaline ([1]; SRA and SRV): one-third
- arterioselectivity ([1]; sheep rectal vessels, artery vs vein): 3 fold
- contractile response ([2]; SRV): concentration-dependent contractions

Structure (SMILES): CCOC1(C2=NCCN2)COc2ccccc2O1 (stereo not drawn) [RX811059, 2-(2-ethoxy-1,4-benzodioxan-2-yl)-2-imidazoline]
- effect on potency of noradrenaline [3]: significantly reduced the potency of noradrenaline
- parallel rightward shift of CRC to guanfacine ([3]; 30 nM): 2 fold
- effect on the noradrenaline CRC ([1]; SRA): no change
- Kb [2, 5]: 0.0138 µM
- pKB ([2]; SRV, 10 nM prazosin / 30 nM RX811059 against noradrenaline): ~7.9
- further rightward shift of the CRC for noradrenaline ([2]; SRV, 30 nM RX811059 added to 10 nM prazosin): 1.6 fold
- rightward shift of the CRC for noradrenaline ([2]; SRV): 3 fold

Structure (SMILES): COC(=O)C1=C(C)NC(C)=C([N+](=O)[O-])[C@H]1c1ccccc1C(F)(F)F [S(−)-BayK8644, (4S)-1,4-dihydro-2,6-dimethyl-5-nitro-4-[2-(trifluoromethyl)-phenyl]-3-pyridine carboxylic acid methyl ester]
- vessels with spontaneous phasic contraction ([4]; 1 μM): 70% and 71%
- vessels with spontaneous phasic contraction ([3]; 1 μM): 80% and 83%
- effect on 5-HT-induced contraction ([1]; SRA and SRV, 1 μM): no effect
- effect on potency of KCl ([1]; SRA, 1 μM): significantly increased the potency
- observations with spontaneous contraction ([1]; SRA, 1 μM): 6%
- effect on potency of noradrenaline ([2]; SRV, 1 μM): significantly increased the potency

Structure (SMILES): COc1ccc(-c2cc(=O)c3c(O)cc(O[C@@H]4O[C@H](CO[C@@H]5O[C@@H](C)[C@H](O)[C@@H](O)[C@H]5O)[C@@H](O)[C@H](O)[C@H]4O)cc3o2)cc1O [diosmin, 3′,5,7-trihydroxy-4′-methoxyflavone 7-rutinoside]
- spontaneous contraction [1]: no spontaneous contraction

- EC50 ([3]; control): 2.24 µM
- EC50 ([3]; with 10 nM prazosin): 2.45 µM
- EC50 [3, 6]: 6.46 µM
- EC50 ([3]; with 30 nM RX811059): 5.25 µM
- EC50 ([1]; Ovis aries, SRA, agonist alone): 0.794 µM
- EC50 [2, 7]: 0.398 µM
- EC50 ([2]; Ovis aries, SRV, in the presence of 10 nM prazosin and 30 nM RX811059): 0.912 µM
- EC50 ([2]; Ovis aries, SRV, in the presence of 1 μM S(−)-BayK8644): 0.229 µM
- pEC50 ([2]; SRV, agonist alone (control)): 6.58±0.07 and 6.48±0.11
Structure (SMILES): N=C(N)NC(=O)Cc1c(Cl)cccc1Cl [guanfacine]
- Emax ([3]; control): 31.4±4.1 percentage of the contraction
- Emax ([3]; with 10 nM prazosin): 18.4±4.1 percentage of the contraction
- Emax [3, 6]: 20.3±8.5 percentage of the contraction
- Emax ([3]; with 30 nM RX811059): 33.0±4.1 percentage of the contraction
- Emax ([1]; Ovis aries, SRA, read-out: maximum response relative to maximum response to noradrenaline): ~20%
- contractile response ([1]; SRA): concentration-dependent contractions
- Emax ([2]; Ovis aries, SRV, read-out: maximum response relative to maximum response to noradrenaline): 45%
- contractile response ([2]; SRV): concentration-dependent contractions
- Emax ([2]; SRV, agonist alone (control)): 54.7±8.1 percentage of the contraction and 37.0±6.6 percentage of the contraction
- Emax ([2]; SRV, in the presence of 10 nM prazosin and 30 nM RX811059): 31.3±4.2 percentage of the contraction
- Emax ([2]; SRV, in the presence of 1 μM S(−)-BayK8644): 72.8±9.0 percentage of the contraction

Structure (SMILES): O=c1c(O)c(-c2cc(O)c(O)c(O)c2)oc2cc(O)cc(O)c12 [myricetin, 3,3′,4′,5,5′,7-hesahydroxyflavone]
- spontaneous contraction [1]: no spontaneous contraction

- EC50 [2, 7]: 0.389 µM
- EC50 ([2]; Ovis aries, SRV, in the presence of 30 nM RX811059): 1.26 µM
Structure (SMILES): NC[C@H](O)c1ccc(O)c(O)c1 [noradrenaline]
- contractile response ([1]; SRA): concentration-dependent contractions
- contractile response ([2]; SRV): concentration-dependent contractions
- venoselectivity ([2]; sheep rectal vessels, vein vs artery): 4 fold

Structure (SMILES): COc1cc2nc(N3CCN(C(=O)c4ccco4)CC3)nc(N)c2cc1OC [prazosin]
- Kb ([4]; Homo sapiens, noradrenaline-induced contractions): 0.000316 µM
- effect on potency of noradrenaline [3]: significantly reduced the potency of noradrenaline
- Kb ([1]; Ovis aries, SRA and SRV, contraction to noradrenaline (summary)): 0.000158 to 0.000398 µM
- Kb ([1]; Ovis aries, SRA, 2 nM prazosin against noradrenaline-induced contraction): 0.000398 µM
- effect on the noradrenaline CRC ([1]; SRA): concentration-dependent, parallel rightward shift
- Kb [2, 5]: 0.00017 µM
- rightward shift of the CRC for noradrenaline ([2]; SRV): 70 fold
